# Patent US20150023887A1, “Antiperspirant Spray Devices and Compositions” (The Procter & Gamble Company, priority 2013, published 2015)
# From the text: (§1) Solubility may be determined by measuring the amount of light transmittance (a light transmittance value) through a simple mixture of the non-volatile silicone fluid and liquid activation enhancer at the same weight/weight concentrations as in a final antiperspirant composition.
# as §1, with “Solubility of a liquid activation enhancer in a non-volatile silicone” for “Solubility”, “(light” for “(a light”
# The Spectronic Genesys 10 Vis utilizes a tungsten-halogen light source and has a spectral bandwidth of 5 nm, a wavelength range of 325 to 1100 nm, accuracy of ±1 nm and a repeatability of ±0.5 nm. Readouts include absorbance, transmittance and concentration. The spectrophotometer is set to 640 nm wavelength and the percent transmittance mode/readout. Polystyrene spectrometer cuvettes having a 1 cm optical light path and transmittance between ˜340 nm and ˜900 nm are used. One suitable example of a spectrometer cuvette is available from VWR International LLC under Catalog #97000-584 having a 2.5 to 4.5 ml capacity. The spectrophotometer is calibrated according to the manufacturer's instructions using a reference cuvette and composition comprised of just the non-volatile silicone fluid of interest. For example, if the test composition comprises 50 centistoke dimethicone and 15% w/w of isopropyl myristate, then the spectrometer is calibrated using a cuvette containing just 50 centistoke dimethicone. Sample cuvettes are filled sufficiently with a test composition of a non-volatile silicone fluid and liquid activation enhancer so that the light path of the spectrophotometer passes through the test composition in the cuvette. The sample cuvettes are shaken well just prior to taking a light transmittance reading.
Molecule,solubility in 50 centistoke dimethicone,light transmittance value
mineral oil,soluble in 50 centistoke dimethicone at some (lower) concentrations,
CCCCCCCCCCCCCCCCCC(=O)OCCCC [butyl stearate],,about 100%
CCCCCCCCCCCCCCCC(=O)OC(C)C [isopropyl palmitate],,about 101%
CCCCCCCCCCCCCC(C)C [isohexadecane],soluble in 50 centistoke dimethicone across the 2% to 30% w/w concentration range,about 100%
PPG-14 butyl ether,insoluble in 50 centistoke dimethicone across the 2% to 30% w/w concentration range,
CCCCCCCCCCC(CO)CCCCCCCC (centres unmarked) [octyldodecanol],soluble in the 50 centistoke dimethicone at some (lower) concentrations,
CCCCCCCCCCCCCC(=O)OC(C)C [isopropyl myristate],,about 101%
